Experimental data taken from ChEMBL document CHEMBL1909046, “DrugMatrix in vitro pharmacology data”.

Columns and labels:
[1] = DRUGMATRIX: Sodium/nucleoside co-transporter radioligand binding (ligand: nitrobenzylthioinosine); type: cell membranes, Cavia porcellus, Dunkin-Hartley, Cerebral cortex, Membrane; details: Not Active = under 50% inhibition at 10 µM
[2] = target: T1, Thromboxane-A synthase (Homo sapiens, UniProt P24557); experiment: biochemical; type: tissue-based, Platelet;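 note: enzyme inhibition assay with PGH2 supplied as substrate; in other assays of this panel Not Active means under 50% inhibition at 10 µM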
T1 sequence (P24557 whole entry): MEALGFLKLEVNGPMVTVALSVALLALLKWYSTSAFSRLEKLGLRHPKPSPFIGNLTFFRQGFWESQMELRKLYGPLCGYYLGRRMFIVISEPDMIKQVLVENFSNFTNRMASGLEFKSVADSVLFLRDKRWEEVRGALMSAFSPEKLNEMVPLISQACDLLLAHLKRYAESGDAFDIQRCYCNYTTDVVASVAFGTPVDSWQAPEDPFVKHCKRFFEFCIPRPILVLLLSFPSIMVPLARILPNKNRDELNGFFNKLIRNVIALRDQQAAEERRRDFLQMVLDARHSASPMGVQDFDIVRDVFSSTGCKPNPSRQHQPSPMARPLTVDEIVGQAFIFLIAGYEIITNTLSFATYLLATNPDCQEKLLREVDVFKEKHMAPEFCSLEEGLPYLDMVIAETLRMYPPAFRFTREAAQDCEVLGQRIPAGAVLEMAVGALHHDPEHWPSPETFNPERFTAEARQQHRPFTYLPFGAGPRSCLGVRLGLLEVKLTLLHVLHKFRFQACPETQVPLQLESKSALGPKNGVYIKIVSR

[3] = target: T2, Leukotriene C4 synthase (Cavia porcellus, UniProt A6XA80); experiment: biochemical; type: tissue-based, Lung;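 note: enzyme inhibition assay of leukotriene C4 synthase, using LTA4 as the substrate; in other assays of this panel Not Active means under 50% inhibition at 10 µM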
T2 sequence (A6XA80 whole entry): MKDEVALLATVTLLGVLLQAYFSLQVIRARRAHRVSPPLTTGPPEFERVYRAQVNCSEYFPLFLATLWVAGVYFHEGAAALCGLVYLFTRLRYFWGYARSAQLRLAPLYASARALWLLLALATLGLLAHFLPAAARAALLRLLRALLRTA

[4] = target: T3, Cysteinyl leukotriene receptor 1 (Homo sapiens, UniProt Q9Y271); type: cell membranes, CHO-K1, Membrane; note: in other assays of this panel Not Active means under 50% inhibition at 10 µM
T3 sequence (Q9Y271 whole entry): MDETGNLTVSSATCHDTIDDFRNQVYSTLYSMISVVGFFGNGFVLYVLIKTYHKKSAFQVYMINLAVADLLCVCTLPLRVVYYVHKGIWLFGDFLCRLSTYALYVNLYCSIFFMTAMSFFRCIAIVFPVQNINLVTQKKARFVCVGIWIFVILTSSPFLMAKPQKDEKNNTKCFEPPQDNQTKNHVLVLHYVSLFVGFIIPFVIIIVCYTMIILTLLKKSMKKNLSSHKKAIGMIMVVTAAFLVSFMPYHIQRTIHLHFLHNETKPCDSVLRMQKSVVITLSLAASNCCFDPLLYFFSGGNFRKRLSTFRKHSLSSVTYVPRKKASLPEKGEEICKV

[5] = target: Melanocortin receptor 5 (Homo sapiens, UniProt P33032); type: cell membranes, HEK293, Membrane; details: hek293; note: in other assays of this panel Not Active means under 50% inhibition at 10 µM
[6] = target: T4, Adenosine receptor A1 (Homo sapiens, UniProt P30542); type: cell membranes, CHO, Membrane
T4 sequence (P30542 whole entry): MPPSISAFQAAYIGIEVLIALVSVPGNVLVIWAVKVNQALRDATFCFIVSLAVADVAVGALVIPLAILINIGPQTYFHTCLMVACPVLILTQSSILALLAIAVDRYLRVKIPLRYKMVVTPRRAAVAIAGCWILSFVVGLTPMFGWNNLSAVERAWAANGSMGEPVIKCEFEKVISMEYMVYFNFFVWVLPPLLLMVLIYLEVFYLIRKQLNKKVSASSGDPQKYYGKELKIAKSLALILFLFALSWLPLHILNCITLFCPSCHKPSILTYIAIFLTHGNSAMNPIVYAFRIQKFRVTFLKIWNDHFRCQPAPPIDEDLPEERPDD

Melanocortin receptor 5, sequence (P33032 whole entry): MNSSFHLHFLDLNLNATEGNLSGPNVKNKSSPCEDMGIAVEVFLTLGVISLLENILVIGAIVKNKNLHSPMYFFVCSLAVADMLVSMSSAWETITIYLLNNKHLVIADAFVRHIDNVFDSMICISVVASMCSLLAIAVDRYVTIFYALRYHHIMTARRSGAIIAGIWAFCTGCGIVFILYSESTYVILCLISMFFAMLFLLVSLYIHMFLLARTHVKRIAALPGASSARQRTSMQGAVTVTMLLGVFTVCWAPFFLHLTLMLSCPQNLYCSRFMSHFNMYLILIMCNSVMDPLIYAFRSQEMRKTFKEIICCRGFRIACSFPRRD

| Structure (SMILES) | IC50 [1] | Ki [1] | IC50 ([2]; platelet) | IC50 [3] | IC50 ([4]; cho-k1) | IC50 [5] | IC50 ([6]; cho) | IC50 ([2]; read-out: IC50) [µM] | IC50 ([4]; read-out: IC50) [µM] | Ki ([4]; read-out: Ki) [µM] | IC50 ([6]; read-out: IC50) [µM] | Ki ([6]; read-out: Ki) [µM] |
| --- | --- | --- | --- | --- | --- | --- | --- | --- | --- | --- | --- | --- |
| COc1cc(/C=C/C(=O)O)ccc1O [FERULATE] | Not Active | Not Active | Not Active | Not Active | Not Active | Not Active | Not Active |  |  |  |  |  |
| NC(=O)NC(=O)Cc1ccccc1 [PHENACEMIDE] | Not Active | Not Active | Not Active | Not Active | Not Active | Not Active | Not Active |  |  |  |  |  |
| NC(=O)CN1CCCC1=O | Not Active | Not Active | Not Active | Not Active | Not Active | Not Active | Not Active |  |  |  |  |  |
| CC(C)Cn1cnc2c(N)nc3ccccc3c21 [IMIQUIMOD] | Not Active | Not Active | Not Active | Not Active | Not Active | Not Active | Not Active |  |  |  |  |  |
| CCO [ALCOHOL] | Not Active | Not Active | Not Active | Not Active | Not Active | Not Active | Not Active |  |  |  |  |  |
| C[C@H](C(=O)O)c1ccc2oc(-c3ccc(F)cc3)nc2c1 [FLUNOXAPROFEN] | Not Active | Not Active | Not Active | Not Active | Not Active | Not Active | Not Active |  |  |  |  |  |
| O=C(O)c1ccccc1 [BENZOIC ACID] | Not Active | Not Active | Not Active | Not Active | Not Active | Not Active | Not Active |  |  |  |  |  |
| CN(CCOc1ccc(C[C@H](Nc2ccccc2C(=O)c2ccccc2)C(=O)O)cc1)c1ccccn1 | Not Active | Not Active |  | Not Active |  | Not Active |  | 2.95 | 10.9 | 5.45 | 15 | 8.73 |
| O=c1[nH]cnc2c1ncn2[C@H]1CC[C@@H](CO)O1 [DIDANOSINE] | Not Active | Not Active | Not Active | Not Active | Not Active | Not Active | Not Active |  |  |  |  |  |
| CC(C)(c1ccc(O)cc1)c1ccc(O)cc1 [BISPHENOL A] | Not Active | Not Active | Not Active | Not Active | Not Active | Not Active | Not Active |  |  |  |  |  |
| ClC1=C(Cl)[C@]2(Cl)[C@@H]3[C@@H]4C[C@@H]([C@H]5O[C@@H]45)[C@@H]3[C@@]1(Cl)C2(Cl)Cl [DIELDRIN] | Not Active | Not Active | Not Active | Not Active | Not Active | Not Active | Not Active |  |  |  |  |  |
| c1ccc(Cn2ccnc2)cc1 | Not Active | Not Active |  | Not Active | Not Active | Not Active | Not Active | 0.602 |  |  |  |  |
| C[C@]12CC[C@@H](O)C[C@@H]1CC[C@@H]1[C@@H]2CC[C@]2(C)C(=O)CC[C@@H]12 [ANDROSTERONE] | Not Active | Not Active | Not Active | Not Active | Not Active | Not Active | Not Active |  |  |  |  |  |
| CC12CCC(CC1)C(C)(C)O2 [EUCALYPTOL] | Not Active | Not Active | Not Active | Not Active | Not Active | Not Active | Not Active |  |  |  |  |  |
